Reference: ChEMBL document CHEMBL3885861, “Open TG-GATES”

Species: Rattus norvegicus
Assay: Open TG-GATES - Regimen: Single
Type: toxicity, organism-based, Sprague-Dawley
Design: regimen Single, gender Male, age 6 weeks
Details: in vivo, po, 0 mg/kg, route gavage, dose level Control; for APTT / Bas / Eos / Fbg / Hb / Ht / Lym / MCH / MCHC / MCV / Mono / Neu / PT / Plat / RBC / Ret / WBC: tissue Blood; for KIDNEY_L / KIDNEY_R / KIDNEY_TOTAL: tissue Kidney; for LIVER: tissue Liver; for A/G / ALP / ALT / AST / BUN / CRE / Ca / Cl / DBIL / GLC / IP / K / LDH / Na / PL / RALB / TBIL / TC / TG / TP / gamma-GTP: tissue Plasma

## NC(=O)N/N=C/c1ccc([N+](=O)[O-])o1 [NITROFURAZONE]
3 h
  TERMINAL_BW: 181.6 g
  APTT: 15.7 s
  Bas: 0%
  Eos: 0.6%
  Fbg: 250 mg/dL
  Hb: 12.7 g/dL
  Ht: 39.7%
  Lym: 79%
  MCH: 21.6 pg
  MCHC: 32%
  MCV: 67.7 fL
  Mono: 2.8%
  Neu: 17%
  PT: 14.7 s
  Plat: 114.3 x10_4/uL
  RBC: 586.4 x10_4/ul
  Ret: 10.9%
  WBC: 77.6 x10_2/uL
  KIDNEY_L: 0.8 g
  KIDNEY_R: 0.8 g
  KIDNEY_TOTAL: 1.6 g
  LIVER: 8.2 g
  A/G: 0.9
  ALP: 1508.2 IU/L
  ALT: 45.4 IU/L
  AST: 78 IU/L
  BUN: 9.8 mg/dL
  CRE: 0.2 mg/dL
  Ca: 11.3 mg/dL
  Cl: 104.8 meq/L
  DBIL: 0.012 mg/dL
  GLC: 179.2 mg/dL
  IP: 9.6 mg/dL
  K: 4.1 meq/L
  LDH: 49.8 IU/L
  Na: 141 meq/L
  PL: 141.8 mg/dL
  RALB: 2.4 g/dL
  TBIL: 0.056 mg/dL
  TC: 80.4 mg/dL
  TG: 54.6 mg/dL
  TP: 5.2 g/dL
  gamma-GTP: 1.2 IU/L
6 h
  TERMINAL_BW: 180.8 g
  APTT: 16.4 s
  Bas: 0.2%
  Eos: 0.6%
  Fbg: 266.6 mg/dL
  Hb: 12.7 g/dL
  Ht: 39.4%
  Lym: 73.2%
  MCH: 22.1 pg
  MCHC: 32.2%
  MCV: 68.6 fL
  Mono: 3%
  Neu: 21.8%
  PT: 14.6 s
  Plat: 118.4 x10_4/uL
  RBC: 576.2 x10_4/ul
  Ret: 11%
  WBC: 90.9 x10_2/uL
  KIDNEY_L: 0.8 g
  KIDNEY_R: 0.9 g
  KIDNEY_TOTAL: 1.7 g
  LIVER: 7.4 g
  A/G: 0.9
  ALP: 1461 IU/L
  ALT: 44.4 IU/L
  AST: 77.2 IU/L
  BUN: 8 mg/dL
  CRE: 0.2 mg/dL
  Ca: 11 mg/dL
  Cl: 105 meq/L
  DBIL: 0.01 mg/dL
  GLC: 169.8 mg/dL
  IP: 10.3 mg/dL
  K: 4.2 meq/L
  LDH: 61.4 IU/L
  Na: 140.6 meq/L
  PL: 132.2 mg/dL
  RALB: 2.4 g/dL
  TBIL: 0.062 mg/dL
  TC: 78.2 mg/dL
  TG: 36.2 mg/dL
  TP: 5.2 g/dL
  gamma-GTP: 1 IU/L
9 h
  TERMINAL_BW: 179.5 g
  APTT: 15.7 s
  Bas: 0%
  Eos: 0.6%
  Fbg: 260 mg/dL
  Hb: 12.7 g/dL
  Ht: 39.8%
  Lym: 75%
  MCH: 21.6 pg
  MCHC: 32%
  MCV: 67.5 fL
  Mono: 2.4%
  Neu: 21.4%
  PT: 14.5 s
  Plat: 109.4 x10_4/uL
  RBC: 590.6 x10_4/ul
  Ret: 10.5%
  WBC: 64.3 x10_2/uL
  KIDNEY_L: 0.8 g
  KIDNEY_R: 0.8 g
  KIDNEY_TOTAL: 1.6 g
  LIVER: 7.1 g
  A/G: 0.9
  ALP: 1214.2 IU/L
  ALT: 47.8 IU/L
  AST: 79.4 IU/L
  BUN: 8.8 mg/dL
  CRE: 0.2 mg/dL
  Ca: 11 mg/dL
  Cl: 105 meq/L
  DBIL: 0.012 mg/dL
  GLC: 169 mg/dL
  IP: 10.6 mg/dL
  K: 3.9 meq/L
  LDH: 55.2 IU/L
  Na: 142 meq/L
  PL: 139.4 mg/dL
  RALB: 2.4 g/dL
  TBIL: 0.062 mg/dL
  TC: 85.2 mg/dL
  TG: 25 mg/dL
  TP: 5.2 g/dL
  gamma-GTP: 1.4 IU/L
24 h
  TERMINAL_BW: 194.2 g
  APTT: 17.5 s
  Bas: 0%
  Eos: 0.8%
  Fbg: 246.6 mg/dL
  Hb: 13 g/dL
  Ht: 40.1%
  Lym: 76.8%
  MCH: 22 pg
  MCHC: 32.4%
  MCV: 67.8 fL
  Mono: 3.2%
  Neu: 18.6%
  PT: 14.8 s
  Plat: 111.2 x10_4/uL
  RBC: 592.4 x10_4/ul
  Ret: 9.7%
  WBC: 96.7 x10_2/uL
  KIDNEY_L: 0.8 g
  KIDNEY_R: 0.9 g
  KIDNEY_TOTAL: 1.7 g
  LIVER: 9 g
  A/G: 0.9
  ALP: 1711.4 IU/L
  ALT: 48.4 IU/L
  AST: 74.4 IU/L
  BUN: 14.8 mg/dL
  CRE: 0.2 mg/dL
  Ca: 11.3 mg/dL
  Cl: 104.8 meq/L
  DBIL: 0.012 mg/dL
  GLC: 177.6 mg/dL
  IP: 8 mg/dL
  K: 3.7 meq/L
  LDH: 61.2 IU/L
  Na: 142 meq/L
  PL: 149.2 mg/dL
  RALB: 2.5 g/dL
  TBIL: 0.044 mg/dL
  TC: 82.2 mg/dL
  TG: 72.4 mg/dL
  TP: 5.4 g/dL
  gamma-GTP: 1 IU/L
